Marks after values point to notes of the source that are not given here.

The text below walks through data of patent US10980766B2, “Entacapone-related compounds to treat macular degeneration” (National Institute of Biological Sciences, Beijing, priority 2016, dated 2021).

The test system of the test is hypoxia-induced retinopathy zebrafish model. The test can be described thus: hypoxia-induced retinopathy zebrafish model (cobalt chloride induced). It counts as in vivo. The note with it: for Blood vessel diameter (mean ± SE): cobalt chloride co-treatment for 4 days, n=10; for Recovery rate (%): blood vessel diameter recovery. Here is the method:
We measured the therapeutic efficacy of entacapone and representative entacapone derivatives in hypoxia-induced retinopathy zebrafish model (Cao et al., Hypoxia-induced retinopathy model in adult zebrafish. Nat Protoc 2010, 5 (12), 1903-10).
We measured the therapeutic effect of entacapone and several representative entacapone derivatives on hypoxia-induced retinopathy zebrafish model. The transgenic Tg (flila:EGFP) zebrafish were treated with cobalt chloride for 4 days to induce retinopathy. […] As positive control, zebrafish were treated with cobalt chloride and 100 μL/mL eye-drops augentropfen stulln mono containing 0.3 μg/mL digitalin and 2 μg/mL esculin.

[1] abbreviates: 10 μM as printed in text, 4 days.

Regarding `CCN(CC)C(=O)/C(C#N)=C/c1cc(O)c(O)c([N+](=O)[O-])c1` [Entacapone, (2E)-2-cyano-3-(3,4-dihydroxy-5-nitrophenyl)-N,N-diethylprop-2-enamide], the “Blood vessel diameter (mean ± SE)” value is, setting by setting: (5 μM) 19.33 ± 0.52 pixel; (5 μM, listed as entacapone) 19.33 pixel; (15 μM) 17.39 ± 0.49 pixel; (50 μM) 17.47 ± 0.29 pixel; (50 μM, listed as entacapone) 17.47 pixel. The “blood vessel diameter recovery rate” value under setting [1] was found to be 94%. Further, under setting [1], the retinal blood diameter was determined as 17.39. For the same molecule, the “eye ball volume (in words)” value (after treatment, compared with model group) is recorded as “larger”. The “Recovery rate (%)” value by setting is: (5 μM, 4 days) 58*** %; (5 μM, 4 days, listed as entacapone) 58%; (15 μM, 4 days) 94*** %; (50 μM, 4 days) 93*** %; (50 μM, 4 days, listed as entacapone) 93%. Further, the “retinal angiogenesis and retina structure (in words)” value (compared with model group) was “suppress hypoxia-induced retinal neoangiogenesis and improve histopathology of retinopathy”. Besides, the “inner plexiform layer and outer plexiform layer thickness (in words)” value (treated groups compared with model group) is “thicker”.
